What was measured:
[1] = test system: Mycobacterium tuberculosis Erdman (autoluminescent); assay: FIC90 (Loewe) at 90% inhibition (log2); higher = more antagonistic
Experimental: (§1)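 DiaMOND equipotent two-drug combination dose responses against autoluminescent M. tuberculosis Erdman in 8 in vitro models. Read-out is OD600, or luminescence for the intracellular and dormancy models, normalised to untreated wells. Hill-fit Einf, AUC25 and GRinf are potency metrics; FIC50 and FIC90 are Loewe-additivity fractional inhibitory concentrations, given as log2 (negative = synergy). Replicates are averaged.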

[2] = test system: Mycobacterium tuberculosis Erdman (autoluminescent); assay: FIC50 (Loewe) at 50% inhibition (log2); higher = more antagonistic
Experimental: as §1

[3] = test system: Mycobacterium tuberculosis Erdman (autoluminescent); assay: Einf, fitted maximum growth inhibition of combination (fraction); higher = stronger maximal inhibition
Experimental: as §1

[4] = test system: Mycobacterium tuberculosis Erdman (autoluminescent); assay: AUC25, normalised area under dose response up to IC25 (fraction (0-1)); higher = more potent at low dose
Experimental: as §1

[5] = test system: Mycobacterium tuberculosis Erdman (autoluminescent); assay: GRinf, maximum normalised growth rate inhibition (unitless (-1 to 1)); higher = less effect (negative = killing)
Experimental: as §1

COc1c(N2C[C@@H]3CCCN[C@@H]3C2)c(F)cc2c(=O)c(C(=O)O)cn(C3CC3)c12 [moxifloxacin] + O=[N+]([O-])c1cn2c(n1)OC[C@@H](OCc1ccc(OC(F)(F)F)cc1)C2 [pretomanid]
Conditions	AUC25, [4]	Einf, [3]	FIC50, [2]	FIC90, [1]	GRinf, [5]
in vitro model: acidic pH 5.7, time point: constant (~7 days, model-specific)	0.139	0.846	0.225	–	-0.773
in vitro model: acidic pH 5.7, time point: terminal (~4-5 doublings, model-specific)	0.107	0.976	-0.052	0.879	-0.428
in vitro model: intracellular J774, time point: constant = terminal	–	0.993	–	-0.156	-0.437

Conditions	AUC25, [4]	Einf, [3]	FIC50, [2]	FIC90, [1]	GRinf, [5]
in vitro model: butyrate, time point: constant (~7 days, model-specific)	0.0964	0.947	0.526	0.61	-0.0779
in vitro model: butyrate, time point: terminal (~4-5 doublings, model-specific)	0.0655	0.973	0.406	0.607	-0.07
in vitro model: cholesterol 0.05 mM, time point: constant (~7 days, model-specific)	0.119	0.751	0.221	–	-0.223
in vitro model: cholesterol 0.05 mM, time point: terminal (~4-5 doublings, model-specific)	0.105	0.938	0.248	0.691	-0.248
in vitro model: cholesterol-high 0.2 mM, time point: constant (~7 days, model-specific)	0.103	0.952	0.238	1.96	-0.404
in vitro model: cholesterol-high 0.2 mM, time point: terminal (~4-5 doublings, model-specific)	0.0655	1	0.457	0.364	-0.745
in vitro model: dormancy (butyrate + nitrate, low O2), time point: constant (~7 days, model-specific)	0.0724	0.898	0.568	0.524	0.165
in vitro model: dormancy (butyrate + nitrate, low O2), time point: terminal (~4-5 doublings, model-specific)	0.0602	0.96	0.607	0.936	-0.142
in vitro model: standard 7H9 glycerol, time point: constant = terminal	0.0929	0.978	-0.329	0.198	-0.166
in vitro model: valerate, time point: constant (~7 days, model-specific)	0.12	0.9	-0.0268	–	-0.302
in vitro model: valerate, time point: terminal (~4-5 doublings, model-specific)	0.102	0.968	-0.156	0.429	-0.0344

NNC(=O)c1ccncc1 [isoniazid] + NC(=O)c1cnccn1 [pyrazinamide]
Conditions	AUC25, [4]	Einf, [3]	FIC50, [2]	FIC90, [1]	GRinf, [5]
in vitro model: acidic pH 5.7, time point: constant (~7 days, model-specific)	0.097	0.857	-0.176	–	-0.422
in vitro model: acidic pH 5.7, time point: terminal (~4-5 doublings, model-specific)	0.0846	0.977	0.19	-0.784	-0.338
in vitro model: intracellular J774, time point: constant = terminal	–	0.964	–	0.267	-0.218

Conditions	AUC25, [4]	Einf, [3]	FIC50, [2]	FIC90, [1]	GRinf, [5]
in vitro model: butyrate, time point: constant (~7 days, model-specific)	0.0844	0.931	-0.141	0.439	0.0223
in vitro model: butyrate, time point: terminal (~4-5 doublings, model-specific)	0.053	0.954	-0.11	-0.0985	0.0459
in vitro model: cholesterol 0.05 mM, time point: constant (~7 days, model-specific)	0.112	0.758	–	–	-0.252
in vitro model: cholesterol 0.05 mM, time point: terminal (~4-5 doublings, model-specific)	0.119	0.951	-0.117	–	-0.372
in vitro model: cholesterol-high 0.2 mM, time point: constant (~7 days, model-specific)	0.0915	0.908	0.321	–	-0.322
in vitro model: cholesterol-high 0.2 mM, time point: terminal (~4-5 doublings, model-specific)	0.0717	0.995	0.538	0.4	-0.664
in vitro model: dormancy (butyrate + nitrate, low O2), time point: constant (~7 days, model-specific)	0.0844	0.897	-0.543	-0.165	0.244
in vitro model: dormancy (butyrate + nitrate, low O2), time point: terminal (~4-5 doublings, model-specific)	0.0579	0.984	-0.16	-0.412	-0.119
in vitro model: standard 7H9 glycerol, time point: constant = terminal	0.0332	0.861	-0.124	–	0.248
in vitro model: valerate, time point: constant (~7 days, model-specific)	0.0637	0.78	-0.102	–	0.208
in vitro model: valerate, time point: terminal (~4-5 doublings, model-specific)	0.0551	0.839	0.196	0.67	0.173

CO[C@H]1/C=C/O[C@@]2(C)Oc3c(C)c(O)c4c(O)c(c(/C=N/N5CCN(C6CCCC6)CC5)c(O)c4c3C2=O)NC(=O)/C(C)=C\C=C\[C@H](C)[C@H](O)[C@@H](C)[C@@H](O)[C@@H](C)[C@H](OC(C)=O)[C@@H]1C [rifapentine] + CO[C@H]1/C=C/O[C@@]2(C)Oc3c(C)c(O)c4c(O)c(c(/C=N/N5CCN(C)CC5)c(O)c4c3C2=O)NC(=O)/C(C)=C\C=C\[C@H](C)[C@H](O)[C@@H](C)[C@@H](O)[C@@H](C)[C@H](OC(C)=O)[C@@H]1C [rifampicin]
Conditions	AUC25, [4]	Einf, [3]	FIC50, [2]	FIC90, [1]	GRinf, [5]
in vitro model: acidic pH 5.7, time point: constant (~7 days, model-specific)	0.0835	0.837	0.179	–	-0.028
in vitro model: acidic pH 5.7, time point: terminal (~4-5 doublings, model-specific)	0.0696	0.967	0.0519	-0.186	-0.182
in vitro model: intracellular J774, time point: constant = terminal	–	0.934	–	-0.3	-0.195

Conditions	AUC25, [4]	Einf, [3]	FIC50, [2]	FIC90, [1]	GRinf, [5]
in vitro model: butyrate, time point: constant (~7 days, model-specific)	0.101	0.887	0.0385	–	0.0983
in vitro model: butyrate, time point: terminal (~4-5 doublings, model-specific)	0.0929	0.958	-0.077	0.00202	0.0599
in vitro model: cholesterol 0.05 mM, time point: constant (~7 days, model-specific)	0.125	0.57	-0.0632	–	0.181
in vitro model: cholesterol 0.05 mM, time point: terminal (~4-5 doublings, model-specific)	0.085	0.883	-0.246	0.16	-0.0494
in vitro model: cholesterol-high 0.2 mM, time point: constant (~7 days, model-specific)	0.0915	0.921	-0.073	0.413	-0.231
in vitro model: cholesterol-high 0.2 mM, time point: terminal (~4-5 doublings, model-specific)	0.0669	0.999	0.0935	-0.0799	-0.64
in vitro model: dormancy (butyrate + nitrate, low O2), time point: constant (~7 days, model-specific)	0.062	0.902	0.0837	-0.356	0.162
in vitro model: dormancy (butyrate + nitrate, low O2), time point: terminal (~4-5 doublings, model-specific)	0.0354	0.979	0.0345	-0.0772	-0.0822
in vitro model: standard 7H9 glycerol, time point: constant = terminal	0.0721	0.907	0.198	0.54	0.101
in vitro model: valerate, time point: constant (~7 days, model-specific)	0.0488	0.815	0.231	–	0.136
in vitro model: valerate, time point: terminal (~4-5 doublings, model-specific)	0.0288	0.921	-0.0221	-0.019	0.0885

O=[N+]([O-])c1cn2c(n1)OC[C@@H](OCc1ccc(OC(F)(F)F)cc1)C2 [pretomanid] + CO[C@H]1/C=C/O[C@@]2(C)Oc3c(C)c(O)c4c(O)c(c(/C=N/N5CCN(C)CC5)c(O)c4c3C2=O)NC(=O)/C(C)=C\C=C\[C@H](C)[C@H](O)[C@@H](C)[C@@H](O)[C@@H](C)[C@H](OC(C)=O)[C@@H]1C [rifampicin]
Conditions	AUC25, [4]	Einf, [3]	FIC50, [2]	FIC90, [1]	GRinf, [5]
in vitro model: acidic pH 5.7, time point: constant (~7 days, model-specific)	0.106	0.944	0.259	–	-0.224
in vitro model: acidic pH 5.7, time point: terminal (~4-5 doublings, model-specific)	0.0463	0.985	0.545	-0.025	-0.239
in vitro model: intracellular J774, time point: constant = terminal	–	0.966	–	-0.863	-0.281

Conditions	AUC25, [4]	Einf, [3]	FIC50, [2]	FIC90, [1]	GRinf, [5]
in vitro model: butyrate, time point: constant (~7 days, model-specific)	0.0943	0.915	0.189	-0.398	0.00239
in vitro model: butyrate, time point: terminal (~4-5 doublings, model-specific)	0.0817	0.966	-0.0797	-0.223	-0.0223
in vitro model: cholesterol 0.05 mM, time point: constant (~7 days, model-specific)	0.108	0.691	0.468	–	-0.0815
in vitro model: cholesterol 0.05 mM, time point: terminal (~4-5 doublings, model-specific)	0.0829	0.905	0.242	-0.715	-0.0976
in vitro model: cholesterol-high 0.2 mM, time point: constant (~7 days, model-specific)	0.0743	0.902	0.509	0.733	-0.211
in vitro model: cholesterol-high 0.2 mM, time point: terminal (~4-5 doublings, model-specific)	0.0653	1	0.521	0.306	-0.595
in vitro model: dormancy (butyrate + nitrate, low O2), time point: constant (~7 days, model-specific)	0.0843	0.942	0.23	-0.00861	0.0579
in vitro model: dormancy (butyrate + nitrate, low O2), time point: terminal (~4-5 doublings, model-specific)	0.0526	0.986	0.0748	0.236	-0.16
in vitro model: standard 7H9 glycerol, time point: constant = terminal	0.0517	0.912	-0.316	-1.42	0.0474
in vitro model: valerate, time point: constant (~7 days, model-specific)	0.104	0.877	0.152	–	0.0588
in vitro model: valerate, time point: terminal (~4-5 doublings, model-specific)	0.0482	0.943	0.504	-0.0514	0.0666
